Data: publication PMC8868518, “Exploring Titanium(IV) Complexes as Potential Antimicrobial Compounds” (Antibiotics, 2022)
Counter-ions that a name gives are not always drawn.

Key:
E. coli (ATCC 25922) = experiment: CO-ADD antibacterial assay, growth inhibition (OD600); assay type: cell-based, Escherichia coli; conditions: up to 32 μg/mL; for MIC / Dmax: Escherichia coli, ATCC25922; for MIC / MIC E. coli: predicted or measured MIC, ≥75% growth inhibition; for Dmax: read-out: Dmax E. coli, maximum % inhibition
[1] = tested on: P. aeruginosa (ATCC 27853); experiment: as above; assay type: cell-based, Pseudomonas aeruginosa; conditions: up to 32 μg/mL; for MIC / Dmax: Pseudomonas aeruginosa, ATCC27853; for MIC / MIC P. aeruginosa: predicted or measured MIC, ≥75% growth inhibition; for Dmax: read-out: Dmax P. aeruginosa, maximum % inhibition
[2] = tested on: A. baumannii (ATCC 19606); experiment: as above; assay type: cell-based, Acinetobacter baumannii; conditions: up to 32 μg/mL; for MIC / Dmax: Acinetobacter baumannii, ATCC19606; for MIC / MIC A. baumannii: predicted or measured MIC, ≥75% growth inhibition; for Dmax: read-out: Dmax A. baumannii, maximum % inhibition
[3] = tested on: K. pneumoniae (ATCC 700603); experiment: as above; assay type: cell-based, Klebsiella pneumoniae; conditions: up to 32 μg/mL; for MIC / Dmax: Klebsiella pneumoniae, ATCC700603; for MIC / MIC K. pneumoniae: predicted or measured MIC, ≥75% growth inhibition; for Dmax: read-out: Dmax K. pneumoniae, maximum % inhibition
[4] = tested on: C. neoformans (ATCC 208821); experiment: CO-ADD antifungal assay, growth inhibition (resazurin, OD600-570); assay type: cell-based, Cryptococcus neoformans; conditions: up to 32 μg/mL; for MIC / Dmax: Cryptococcus neoformans, ATCC208821; for MIC / MIC C. neoformans: predicted or measured MIC, ≥75% growth inhibition, 36 h; for Dmax: read-out: Dmax C. neoformans, maximum % inhibition
C. albicans (ATCC 90028) = experiment: CO-ADD antifungal assay, growth inhibition (OD630); assay type: cell-based, Candida albicans; conditions: for MIC / Dmax: Candida albicans, ATCC90028; for MIC / MIC C. albicans: predicted or measured MIC, ≥75% growth inhibition, 36 h; for MIC / Dmax / MIC C. albicans / Dmax C. albicans, maximum % inhibition: up to 32 μg/mL; for Dmax: read-out: Dmax C. albicans, maximum % inhibition

Compound | MIC (E. coli (ATCC 25922)) [µg/mL] | Dmax (E. coli (ATCC 25922)) [%] | MIC [1] [µg/mL] | Dmax [1] [%] | MIC [2] [µg/mL] | Dmax [2] [%] | MIC [3] [µg/mL] | Dmax [3] [%] | MIC [4] [µg/mL] | MIC E. coli (E. coli (ATCC 25922)) [µg/mL] | Dmax E. coli, maximum % inhibition (E. coli (ATCC 25922)) [%] | MIC P. aeruginosa [1] [µg/mL] | Dmax P. aeruginosa, maximum % inhibition [1] [%] | MIC A. baumannii [2] [µg/mL] | Dmax A. baumannii, maximum % inhibition [2] [%] | MIC K. pneumoniae [3] [µg/mL] | Dmax K. pneumoniae, maximum % inhibition [3] [%] | MIC C. neoformans [4] [µg/mL] | MIC C. albicans (C. albicans (ATCC 90028)) [µg/mL] | Dmax C. albicans, maximum % inhibition (C. albicans (ATCC 90028)) [%] | also measured
O=C(O)CC(O)(CC(=O)O)C(=O)O [Compound 1, Trisodium citrate, reference compound] | > 32 | 6.14 | > 32 | 10.3 | > 32 | 18 | > 32 | 14.2 | > 32 | – | – | – | – | – | – | – | – | – | – | – | Dmax [4]: -8.24%; MIC (C. albicans (ATCC 90028)): > 32 µg/mL; Dmax (C. albicans (ATCC 90028)): 0.28%
Oc1cc2ccccc2cc1O [Compound 2, 2,3-dihydroxynaphthalene, reference compound] | > 32 | 6.86 | > 32 | 14.6 | > 32 | 31.3 | > 32 | 26.8 | > 32 | – | – | – | – | – | – | – | – | – | – | – | Dmax [4]: -9.97%; MIC (C. albicans (ATCC 90028)): > 32 µg/mL; Dmax (C. albicans (ATCC 90028)): 16.3%
O=C(O)c1ccccc1O [Compound 6, salicylic acid, reference compound] | > 32 | -0.01 | > 32 | 9.76 | > 32 | 17.9 | > 32 | 17.1 | > 32 | – | – | – | – | – | – | – | – | – | – | – | Dmax [4]: -10.7%; MIC (C. albicans (ATCC 90028)): > 32 µg/mL; Dmax (C. albicans (ATCC 90028)): 30.9%
[K+].[K+].c1ccc2cc3c(cc2c1)[O][Ti-2]12([O]3)([O]c3cc4ccccc4cc3[O]1)[O]c1cc3ccccc3cc1[O]2 [Compound 8, K2[Ti(Naphthalene-2,3-diolate)3]] | – | – | – | – | – | – | – | – | – | >32 | 2.67 | >32 | 13.43 | >32 | 24.76 | >32 | 22.94 | >32 | >32 | 57.57 | Dmax C. neoformans, maximum % inhibition [4]: −1.45%
O=C(O)c1ccc(-n2nc3nc2-c2ccccc2[O][Ti]2([O]c4ccccc4-3)[O]c3ccccc3-c3nc(n(-c4ccc(C(=O)O)cc4)n3)-c3ccccc3[O]2)cc1 [Compound 10, titanium(IV) bis(deferasirox)] | – | – | – | – | – | – | – | – | – | >32 | 20.44 | >32 | 7.57 | >32 | 16.28 | >32 | 34.61 | >32 | >32 | 5.74 | Dmax C. neoformans, maximum % inhibition [4]: −5.72%
O=C([O-])C(=O)O.O=C([O-])C(=O)O.[K+].[K+].[O]=[Ti] [Compound 14, Potassium dioxalatoxotitanate(IV) dihydrate] | – | – | – | – | – | – | – | – | – | >32 | 11.0 | >32 | 7.5 | >32 | 8.2 | >32 | 17.2 | >32 | 32 | 77.3 | C. albicans MIC value in units of molarity (C. albicans (ATCC 90028); converted from 32 μg/mL (Table S1)): 90.4 µM; Dmax C. albicans, maximum % inhibition (C. albicans (ATCC 90028); listed as K2[TiO(Oxalate)2]): greater than 75%
[Cu(Deferasirox)(H2O)]2 [Compound 15] | – | – | – | – | – | – | – | – | – | >32 | −9.5 | >32 | 19.2 | >32 | 7.8 | >32 | 7.7 | >32 | >32 | 34.0 | –
